Laboratory results from patent US20150291598A1 (NOVARTIS AG, priority 2012, published 2015).

test system: P. falciparum (NF54 or 3D7 strain); assay: Assay for P. falciparum proliferation in infected human blood cells (SYBR Green); assay type: cell-based, Plasmodium falciparum; conditions: Plasmodium falciparum, Erythrocyte, 72 h, NF54 or 3D7 infected human erythrocytes, 72 hours; read-out: EC50 (nM), inhibitory efficacy in delaying P. falciparum proliferation in infected human blood cells
Protocol: Assay for P. falciparum Proliferation in Infected Human Blood Cells
Compounds of the invention can be assayed to measure their capacity to inhibit proliferation of P. falciparum parasitemia in infected red blood cells. This parasite proliferation assay measures the increase in parasite DNA content using a DNA intercalating dye, SYBR Green® (INVITROGEN®) which has a high affinity for double stranded DNA.
NF54 or 3D7 P. falciparum strain is grown in complete culturing media until parasitemia reaches 3% to 8% with O+ human erythrocytes. […] 20 μl of screening media is dispensed into 384 well assay plates. 50 nl of compounds of the invention (in DMSO), including antimalarial controls (mefloquine, pyrimethamine and artemisinin), are then transferred into the assay plates, as well as DMSO alone to serve as a negative control for inhibition. Then 30 μl of a suspension of a NF54 or 3D7 P. falciparum infected erythrocytes in screening media is dispensed into the assay plates such that the final hematocrit is 2.5% with a final parasitemia of 0.3%. The plates are placed in a 37° C. incubator for 72 hours in a low oxygen environment containing 93% N2, 4% CO2, and 3% O2 gas mixture. 10 μl of lysis buffer (saponin, triton-X, EDTA) containing a 10× solution of SYBR Green I® in RPMI media is dispensed into the plates. The plates are lidded and kept at room temperature overnight for the lysis of the infected red blood cells. The fluorescence intensity is measured (excitation […], emission 530 nm) using the Envision™ system (Perkin Elmer).

Row | SMILES | EC50
1 | Cc1cc(Cl)ccc1-c1cnc2cnc(C(=O)N(C)c3ccc(C#N)cc3)cn12 [Compound 26, 3-(4-chloro-2-methylphenyl)-N-(4-cyanophenyl)-N-methylimidazo[1,2-a]pyrazine-6-carboxamide] | 8330 nM
2 | CN(C(=O)c1cn2c(-c3ccnc(Cl)c3)cnc2cn1)c1ccc(C#N)cc1 [Compound 27, 3-(2-chloropyridin-4-yl)-N-(4-cyanophenyl)-N-methylimidazo[1,2-a]pyrazine-6-carboxamide] | > 10000 nM
3 | CN(C(=O)c1cn2c(-c3ncc(F)cc3F)cnc2cn1)c1ccc(C#N)cc1 [Compound 29, N-(4-cyanophenyl)-3-(3,5-difluoropyridin-2-yl)-N-methylimidazo[1,2-a]pyrazine-6-carboxamide] | 2040 nM
4 | COc1ccc(-c2cnc3cnc(C(=O)N(C)c4ccc(C#N)cc4)cn23)cc1C [Compound 30, N-(4-cyanophenyl)-3-(4-methoxy-3-methylphenyl)-N-methylimidazo[1,2-a]pyrazine-6-carboxamide] | 2510 nM
5 | CN(C(=O)c1cn2c(-c3ccc(C(F)(F)F)cc3Cl)cnc2cn1)c1ccc(C#N)cc1 [Compound 31, 3-[2-chloro-4-(trifluoromethyl)phenyl]-N-(4-cyanophenyl)-N-methylimidazo[1,2-a]pyrazine-6-carboxamide] | 1200 nM
6 | CC(=O)c1cnc2cnc(C(=O)N(C)c3ccc(Cl)nc3)cn12 [Compound 33, 3-acetyl-N-(6-chloropyridin-3-yl)-N-methylimidazo[1,2-a]pyrazine-6-carboxamide] | 4710 nM
7 | CN(C(=O)c1cn2c(-c3ccc(C(F)(F)F)cc3)cnc2cn1)c1cccc(Cl)c1 [Compound 35, N-(3-chlorophenyl)-N-methyl-3-[4-(trifluoromethyl)phenyl]imidazo[1,2-a]pyrazine-6-carboxamide] | 462 nM
8 | CN(C)c1ccc(-c2cnc3cnc(CN(C)c4ccc(Cl)cc4)cn23)cc1 [Compound 37, 4-(6-{[(4-chlorophenyl)(methyl)amino]methyl}imidazo[1,2-a]pyrazin-3-yl)-N,N-dimethylaniline] | 640 nM
9 | CCc1ccc(N(C)C(=O)c2cn3c(-c4ccc(C(F)(F)F)cc4)cnc3cn2)nc1 [Compound 39, N-(5-ethylpyridin-2-yl)-N-methyl-3-[4-(trifluoromethyl)phenyl]imidazo[1,2-a]pyrazine-6-carboxamide] | 1080 nM
10 | CN(C(=O)c1cn2c(-c3ccc(C(F)(F)F)cc3)cnc2cn1)c1ccccc1OC(F)(F)F [Compound 40, N-methyl-N-[2-(trifluoromethoxy)phenyl]-3-[4-(trifluoromethyl)phenyl]imidazo[1,2-a]pyrazine-6-carboxamide] | 3320 nM
11 | COc1ccc(-c2cnc3cnc(C(=O)N(C)c4ccc(C#N)cc4)cn23)cc1Cl [Compound 42, -(3-chloro-4-methoxyphenyl)-N-(4-cyanophenyl)-N-methylimidazo[1,2-a]pyrazine-6-carboxamide] | 333 nM
12 | CN(C(=O)c1cn2c(-c3ccc(C(F)(F)F)cc3)cnc2cn1)c1ccc(Oc2ccccc2)cc1 [Compound 43, N-methyl-N-(4-phenoxyphenyl)-3-[4-(trifluoromethyl)phenyl]imidazo[1,2-a]pyrazine-6-carboxamide] | > 10000 nM
13 | CN(C(=O)c1cn2c(-c3cccc(-c4cn[nH]c4)c3)cnc2cn1)c1ccc(C#N)cc1 [Compound 46, N-(4-cyanophenyl)-N-methyl-3-[3-(1H-pyrazol-4-yl)phenyl]imidazo[1,2-a]pyrazine-6-carboxamide] | > 10000 nM
14 | Cc1ccc(N(C)Cc2cn3c(-c4ccc(-c5ccn[nH]5)cc4)cnc3cn2)nc1 [Compound 47, N,5-dimethyl-N-({3-[4-(1H-pyrazol-5-yl)phenyl]imidazo[1,2-a]pyrazin-6-yl}methyl)pyridin-2-amine] | 1240 nM
15 | COc1cccc(-c2cnc3cnc(C(=O)N(C)c4ccc(C#N)cc4)cn23)c1 [Compound 48, N-(4-cyanophenyl)-3-(3-methoxyphenyl)-N-methylimidazo[1,2-a]pyrazine-6-carboxamide] | 5100 nM
16 | CN(C(=O)c1cn2c(-c3ccc(C(F)(F)F)cc3)cnc2cn1)c1ccc(OC(F)F)cc1 [Compound 50, N-[4-(difluoromethoxy)phenyl]-N-methyl-3-[4-(trifluoromethyl)phenyl]imidazo[1,2-a]pyrazine-6-carboxamide] | 828 nM
17 | CN(C(=O)c1cn2c(-c3ccc(C(F)(F)F)cc3)cnc2cn1)c1ccc(-c2cnn(C)c2)cc1 [Compound 51, N-methyl-N-[4-(1-methyl-1H-pyrazol-4-yl)phenyl]-3-[4-(trifluoromethyl)phenyl]imidazo[1,2-a]pyrazine-6-carboxamide] | > 9720 nM
18 | CN(C(=O)c1cn2c(-c3ccc(C(F)(F)F)cc3)cnc2cn1)c1cccnc1F [Compound 54, N-(2-fluoropyridin-3-yl)-N-methyl-3-[4-(trifluoromethyl)phenyl]imidazo[1,2-a]pyrazine-6-carboxamide] | > 9280 nM
19 | Cc1cc(N(C)C(=O)c2cn3c(-c4ccc(C(F)(F)F)cc4)cnc3cn2)ccc1Cl [Compound 56, N-(4-chloro-3-methylphenyl)-N-methyl-3-[4-(trifluoromethyl)phenyl]imidazo[1,2-a]pyrazine-6-carboxamide] | 491 nM
20 | CN(C(=O)c1cn2c(-c3ccc(C(F)(F)F)cc3)cnc2cn1)c1ccc(Br)nc1 [Compound 58, N-(6-bromopyridin-3-yl)-N-methyl-3-[4-(trifluoromethyl)phenyl]imidazo[1,2-a]pyrazine-6-carboxamide] | 1140 nM
21 | CN(C(=O)c1cn2c(-c3ccc(Cl)c(C(F)(F)F)c3)cnc2cn1)c1ccc(C#N)cc1 [Compound 60, 3-[4-chloro-3-(trifluoromethyl)phenyl]-N-(4-cyanophenyl)-N-methylimidazo[1,2-a]pyrazine-6-carboxamide] | 2630 nM

The remaining compounds from weak to strong by EC50, led by results:

Row | EC50 | SMILES
22 | 329 nM | CN(C)c1ccc(-c2cnc3cnc(CN(C)c4ccc(F)cc4)cn23)cc1 [Compound 36, 4-(6-{[(4-fluorophenyl)(methyl)amino]methyl}imidazo[1,2-a]pyrazin-3-yl)-N,N-dimethylaniline]
23 | 314 nM | CN(C(=O)c1cn2c(-c3ccc(C(F)(F)F)cc3)cnc2cn1)c1ccc(Cl)cc1Cl [Compound 49, N-(2,4-dichlorophenyl)-N-methyl-3-[4-(trifluoromethyl)phenyl]imidazo[1,2-a]pyrazine-6-carboxamide]
24 | 206 nM | CN(Cc1cn2c(-c3ccc(Cl)cc3)cnc2cn1)c1ccc(Cl)cc1 [Compound 44, 4-chloro-N-{[3-(4-chlorophenyl)imidazo[1,2-a]pyrazin-6-yl]methyl}-N-methylaniline]
25 | 187 nM | CN(C(=O)c1cn2c(-c3ccc(C(F)(F)F)cc3)cnc2cn1)c1ccc(F)c(Br)c1 [Compound 52, N-(3-bromo-4-fluorophenyl)-N-methyl-3-[4-(trifluoromethyl)phenyl]imidazo[1,2-a]pyrazine-6-carboxamide]
26 | 178 nM | Cc1ccc(N(C)Cc2cn3c(-c4ccc5c(cnn5C)c4)cnc3cn2)nc1 [Compound 45, N,5-dimethyl-N-{[3-(1-methyl-1H-indazol-5-yl)imidazo[1,2-a]pyrazin-6-yl]methyl}pyridin-2-amine]
27 | 160 nM | CN(C(=O)c1cn2c(-c3ccc(C(F)(F)F)cc3)cnc2cn1)c1ccc(Cl)c(Cl)c1 [Compound 55, N-(3,4-dichlorophenyl)-N-methyl-3-[4-(trifluoromethyl)phenyl]imidazo[1,2-a]pyrazine-6-carboxamide]
28 | 135 nM | CN(C(=O)c1cn2c(-c3ccc(C(F)(F)F)cc3)cnc2cn1)c1ccc(F)c(Cl)c1 [Compound 32, N-(3-chloro-4-fluorophenyl)-N-methyl-3-[4-(trifluoromethyl)phenyl]imidazo[1,2-a]pyrazine-6-carboxamide]
29 | 97 nM | COc1ccc(-c2cnc3cnc(C(=O)N(C)c4ccc(Cl)cc4Cl)cn23)cc1 [Compound 41, N-(2,4-dichlorophenyl)-3-(4-methoxyphenyl)-N-methylimidazo[1,2-a]pyrazine-6-carboxamide]
30 | 70 nM | CN(C(=O)c1cn2c(-c3ccc(C(F)F)cc3)cnc2cn1)c1ccc(C#N)cc1 [Compound 57, N-(4-cyanophenyl)-3-[4-(difluoromethyl)phenyl]-N-methylimidazo[1,2-a]pyrazine-6-carboxamide]
31 | 35 nM | COc1cc(Cl)ccc1N(C)C(=O)c1cn2c(-c3ccc(C(F)(F)F)cc3)cnc2cn1 [Compound 59, N-(4-chloro-2-methoxyphenyl)-N-methyl-3-[4-(trifluoromethyl)phenyl]imidazo[1,2-a]pyrazine-6-carboxamide]
32 | 13 nM | CN(Cc1cn2c(-c3ccc(-c4nnc(N)s4)cc3)cnc2cn1)c1ccc(Cl)nc1 [Compound 28, -({3-[4-(5-amino-1,3,4-thiadiazol-2-yl)phenyl]imidazo[1,2-a]pyrazin-6-yl}methyl)-6-chloro-N-methylpyridin-3-amine]
33 | 12 nM | CN(C(=O)c1cn2c(-c3ccc4c(cnn4C)c3)cnc2cn1)c1ccc(F)c(F)c1 [Compound 53, N-(3,4-difluorophenyl)-N-methyl-3-(1-methyl-1H-indazol-5-yl)imidazo[1,2-a]pyrazine-6-carboxamide]

same assay, conditions: Plasmodium falciparum, Erythrocyte, infected human red blood cells; read-out: EC50, P. falciparum Proliferation Assay

Row | SMILES | EC50
34 | Cc1ccc(N(C)Cc2cn3c(-c4ccc(-c5ccn[nH]5)cc4)cnc3cn2)nc1 [Compound 47, N,5-dimethyl-N-({3-[4-(1H-pyrazol-5-yl)phenyl]imidazo[1,2-a]pyrazin-6-yl}methyl)pyridin-2-amine] | < 50 nM
